# Test system: B cell receptor-mediated activation of B cells in human blood (CD69 expression)
# Assay: Inhibition of B cell activation in whole blood measured by CD69 expression
# Assay type: cell-based
# Conditions: anti-IgM stimulation, 20 hours, CD69-positive cells that are also CD20-positive, read-out: HWB IC50
# Experimental: Inhibition of B Cell Activation in Whole Blood Measured by CD69 Expression
# A procedure to test the ability of Btk inhibitors to suppress B cell receptor-mediated activation of B cells in human blood is as follows:
# Human whole blood (HWB) is obtained from healthy volunteers, with the following restrictions: 24 hr drug-free, non-smokers. Blood is collected by venipuncture into Vacutainer tubes anticoagulated with sodium heparin. Test compounds are diluted to ten times the desired starting drug concentration in PBS […], followed by three-fold serial dilutions in 10% DMSO in PBS to produce a nine point dose-response curve. […] HWB (100 μl) is added to each well, and after mixing the plates are incubated at 37 C, 5% CO2, 100% humidity for 30 minutes.
# Included are induced control, unstained and single stains for compensation adjustments and initial voltage settings. […] Supernatants are removed via suction and the remaining pellets are lysed again with another 1 ml of 1× Pharmingen Lyse Buffer, and plates are spun down as before. Supernatants are aspirated and remaining pellets are washed in FACs buffer (PBS+1% FBS). […] Samples are transferred to a 96 well plate suitable to be run on the HTS 96 well system on the BD LSR II flow cytometer.
# Using appropriate excitation and emission wavelengths for the fluorophores used, data are acquired and percent positive cell values are obtained using Cell Quest Software. Results are initially analyzed by FACS analysis software (Flow Jo).
row,SMILES,IC50
1,"Cn1nc(-c2ccnc(-n3ncc4cc(C(C)(C)C)ccc4c3=O)c2CO)cc(Nc2ccc(OC(C)(C)CN3CC(F)(F)C3)cn2)c1=O [Compound I-33, 6-tert-Butyl-2-[4-(5-{5-[2-(3,3-difluoro-azetidin-1-yl)-1,1-dimethyl-ethoxy]-pyridin-2-ylamino}-1-methyl-6-oxo-1,6-dihydro-pyridazin-3-yl)-3-hydroxymethyl-pyridin-2-yl]-2H-phthalazin-1-one]",212 nM
2,"Cn1nc(-c2ccnc(-n3ncc4cc(C(C)(C)C)cc(F)c4c3=O)c2CO)cc(Nc2ccc(S(C)(=O)=O)cn2)c1=O [Compound I-4, 6-tert-Butyl-8-fluoro-2-{3-hydroxymethyl-4-[5-(5-methanesulfonyl-pyridin-2-ylamino)-1-methyl-6-oxo-1,6-dihydro-pyridazin-3-yl]-pyridin-2-yl}-2H-phthalazin-1-one]",95 nM
3,"Cn1nc(-c2ccnc(-n3ncc4cc(C(C)(C)C)ccc4c3=O)c2CO)cc(Nc2ccc(OC(C)(C)CN3CCC3)cn2)c1=O [Compound I-16, 2-(4-{5-[5-(2-Azetidin-1-yl-1,1-dimethyl-ethoxy)-pyridin-2-ylamino]-1-methyl-6-oxo-1,6-dihydro-pyridazin-3-yl}-3-hydroxymethyl-pyridin-2-yl)-6-tert-butyl-2H-phthalazin-1-one]",28 nM
4,"Cn1cc(-c2nccc(-n3ncc4cc(C(C)(C)C)cc(F)c4c3=O)c2CO)cc(Nc2ccc(C(=O)N3CCOCC3)cn2)c1=O [Compound I-28, 4-(6-tert-Butyl-8-fluoro-1-oxo-1H-phthalazin-2-yl)-3-hydroxymethyl-1′-methyl-5′-[5-(morpholine-4-carbonyl)-pyridin-2-ylamino]-1′H-[2,3′]bipyridinyl-6′-one]",74 nM
5,"Cn1nc(-c2ccnc(-n3ncc4cc(C(C)(C)C)ccc4c3=O)c2CO)cc(Nc2ccc(C(=O)N3CCOCC3)cn2)c1=O [Compound I-7, 6-tert-Butyl-2-(3-hydroxymethyl-4-{1-methyl-5-[5-(morpholine-4-carbonyl)-pyridin-2-ylamino]-6-oxo-1,6-dihydro-pyridazin-3-yl}-pyridin-2-yl)-2H-phthalazin-1-one]",101 nM
6,"Cn1nc(-c2ccnc(-n3ccc4cc(C(C)(C)C)cc(F)c4c3=O)c2CO)cc(Nc2cc3n(n2)CCN(C2COC2)C3)c1=O [Compound I-24, 6-tert-Butyl-8-fluoro-2-{3-hydroxymethyl-4-[1-methyl-5-(5-oxetan-3-yl-4,5,6,7-tetrahydro-pyrazolo[1,5-a]pyrazin-2-ylamino)-6-oxo-1,6-dihydro-pyridazin-3-yl]-pyridin-2-yl}-2H-isoquinolin-1-one]",6 nM
7,"CN1CCn2nc(Nc3cc(-c4ccnc(-n5ncc6cc(C(C)(C)C)cc(F)c6c5=O)c4CO)nn(C)c3=O)cc2C1 [Compound I-18, 6-tert-Butyl-8-fluoro-2-{3-hydroxymethyl-4-[1-methyl-5-(5-methyl-4,5,6,7-tetrahydro-pyrazolo[1,5-a]pyrazin-2-ylamino)-6-oxo-1,6-dihydro-pyridazin-3-yl]-pyridin-2-yl}-2H-phthalazin-1-one]",29 nM
8,"Cn1cc(-c2ccnc(-n3ccc4cc(C5CC5)cc(F)c4c3=O)c2CO)cc(Nc2ccc(C(=O)N3CCOCC3)cn2)c1=O [Compound I-11, 2′-(6-Cyclopropyl-8-fluoro-1-oxo-1H-isoquinolin-2-yl)-3′-hydroxymethyl-1-methyl-5-[5-(morpholine-4-carbonyl)-pyridin-2-ylamino]-1H-[3,4′]bipyridinyl-6-one]",15 nM
9,"Cn1nc(-c2ccnc(-n3ncc4cc(C(C)(C)C)cc(F)c4c3=O)c2CO)cc(Nc2cc3n(n2)CC[N+](C)([O-])C3)c1=O (stereo not drawn) [Compound I-34, 6-tert-Butyl-8-fluoro-2-{3-hydroxymethyl-4-[1-methyl-5-(5-methyl-5-oxy-4,5,6,7-tetrahydro-pyrazolo[1,5-a]pyrazin-2-ylamino)-6-oxo-1,6-dihydro-pyridazin-3-yl]-pyridin-2-yl}-2H-phthalazin-1-one]",3500 nM
